Legend:
[1] = system: breast cancer cell line MCF-7; test: Activity against breast cancer cell line MCF-7; assay type: cell-based; settings: Homo sapiens, MCF7, read-out: IC50 against MCF-7
[2] = system: endothelial human sapiens cell line EA.hy926; test: Activity against endothelial cell line EA.hy926; assay type: cell-based; settings: EA.hy 926, read-out: IC50 against EA.hy926

**Q.** Which IC50 [1] does the source give for CCc1cc(=O)n2c(=O)/c(=C/c3ccc(-c4ccc(C)cc4)cc3)sc2n1 [Compound 15, (Z)-7-ethyl-2-((4′-methyl-[1,1′-biphenyl]-4-yl)methylene)-5H-thiazolo[3,2-a]pyrimidine-3,5(2H)-dione] here?
**A.** > 250 µM

**Q.** What about the IC50 [2] of the same compound?
**A.** > 250 µM
